ChEMBL document CHEMBL1145099, “Aloisines, a new family of CDK/GSK-3 inhibitors. SAR study, crystal structure in complex with CDK2, enzyme selectivity, and cellular effects” (J Med Chem, 2003)

What was measured:
[1] = target: Cyclin-dependent kinase 5/CDK5 activator 1 (Homo sapiens, UniProt Q00535); assay: Inhibitory activity against recombinant mammalian cyclin-dependent kinase 5 (p35 NCK5a) expressed in Escherichia coli
[2] = target: CDK1/cyclin B (Marthasterias glacialis)
[3] = target: Glycogen synthase kinase-3 beta (Homo sapiens, UniProt P49841); assay: Inhibition of glycogen synthase kinase-3 beta, purified from porcine brain or expressed in and purified from insect Sf9 cells; assay type: cell-based, Sus scrofa
Sequence of Glycogen synthase kinase-3 beta (P49841 whole entry): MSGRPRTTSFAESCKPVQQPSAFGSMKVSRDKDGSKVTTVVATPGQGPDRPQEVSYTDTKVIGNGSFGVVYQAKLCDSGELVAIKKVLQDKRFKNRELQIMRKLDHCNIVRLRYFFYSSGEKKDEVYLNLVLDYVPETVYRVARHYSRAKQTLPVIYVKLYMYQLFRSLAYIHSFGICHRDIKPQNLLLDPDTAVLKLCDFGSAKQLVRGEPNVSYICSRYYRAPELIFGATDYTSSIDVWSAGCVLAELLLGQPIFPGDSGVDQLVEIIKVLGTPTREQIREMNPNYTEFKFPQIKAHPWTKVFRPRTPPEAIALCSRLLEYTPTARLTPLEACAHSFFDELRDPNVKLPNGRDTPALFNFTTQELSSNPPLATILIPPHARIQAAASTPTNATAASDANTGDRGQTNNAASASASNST

Sequence of Cyclin-dependent kinase 5/CDK5 activator 1 (Q00535 whole entry): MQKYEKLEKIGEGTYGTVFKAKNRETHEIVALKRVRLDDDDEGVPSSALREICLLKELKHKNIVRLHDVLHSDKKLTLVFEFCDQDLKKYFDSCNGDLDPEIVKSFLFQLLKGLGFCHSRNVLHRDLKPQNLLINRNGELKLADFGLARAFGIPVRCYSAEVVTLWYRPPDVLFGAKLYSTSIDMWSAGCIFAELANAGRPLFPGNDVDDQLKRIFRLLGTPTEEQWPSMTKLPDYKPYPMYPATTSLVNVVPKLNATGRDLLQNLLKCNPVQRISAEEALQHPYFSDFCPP
Sequence of Cyclin-dependent kinase 5/CDK5 activator 1 (Q15078 whole entry, further chain): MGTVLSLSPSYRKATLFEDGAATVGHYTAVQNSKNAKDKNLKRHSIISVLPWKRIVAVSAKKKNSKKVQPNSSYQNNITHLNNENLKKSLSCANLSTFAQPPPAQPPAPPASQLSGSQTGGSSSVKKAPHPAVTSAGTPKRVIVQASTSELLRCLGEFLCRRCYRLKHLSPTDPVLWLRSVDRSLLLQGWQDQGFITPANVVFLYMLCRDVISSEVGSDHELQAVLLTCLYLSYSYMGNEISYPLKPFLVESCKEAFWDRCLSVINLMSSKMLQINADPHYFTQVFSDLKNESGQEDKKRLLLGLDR

Row | Compound | IC50 [1] [µM] | IC50 [2] [µM] | IC50 [3] [µM]
1 | c1coc(-c2cc3[nH]ccnc-3n2)c1 | 9.3 | 12 | 15
2 | c1ccc(-c2cc3[nH]ccnc-3n2)cc1 | 4 | 5 | 2.3
3 | Fc1ccc(-c2cc3[nH]ccnc-3n2)cc1 | 1 | 2.3 | 1.9
4 | Clc1ccc(-c2[nH]c3nccnc3c2CC2CCCCC2)cc1 | > 100 | 10 | 8
5 | CCCCc1c(-c2ccc(Cl)cc2)[nH]c2nccnc12 | > 100 | 0.2 | 5.9
6 | c1ccc(-c2cc3[nH]c4ccccc4nc-3n2)cc1 | > 100 | > 100 | > 100
7 | Clc1ccc(C2(c3cc4[nH]ccnc-4n3)CC2)cc1 | 100 | 30 | 1
8 | Cc1ccc(-c2cc3[nH]ccnc-3n2)cc1 | 10 | 3 | 2.6
9 | Oc1cccc(-c2cc3[nH]ccnc-3n2)c1 |  | 2.5 | 
10 | CCCc1c(-c2ccc(OC)cc2)[nH]c2nccnc12 | 0.5 | 0.4 | 0.4
11 | COc1ccc(-c2[nH]c3nccnc3c2C(C)C)cc1 | 2 |  | 0.5
12 | Clc1ccc(-c2[nH]c3nccnc3c2Cc2ccccc2)cc1 | > 100 |  | 6.8
13 | Cc1c[nH]c2cc(-c3ccccc3)nc-2n1 | 100 | 69 | > 100
14 | COc1cc(-c2cc3[nH]ccnc-3n2)cc(OC)c1OC | > 100 | 100 | 85
15 | COc1ccc(-c2[nH]c3nccnc3c2C)cc1OC | 1 | 1.1 | 2
16 | c1csc(-c2cc3[nH]ccnc-3n2)c1 | 2 | 7 | 1.2
17 | Oc1ccc(-c2[nH]c3nccnc3c2CC2CC2)cc1 | > 100 | 50 | 3
18 | Cc1c(C2(c3ccc(Cl)cc3)CC2)[nH]c2nccnc12 | 100 |  | 18
19 | c1c[nH]c2cc(-c3ccsc3)nc-2n1 | 1 | 2.3 | 0.8
20 | Clc1cc(Cl)cc(-c2cc3[nH]ccnc-3n2)c1 | > 100 | > 100 | > 100
21 | COc1ccc(-c2[nH]c3nccnc3c2CC2CC2)cc1 | > 100 | 1 | 1.1
22 | CCCCCCCc1c(-c2ccc(OC)cc2)[nH]c2nccnc12 | > 100 | 7 | > 10
23 | C=CCc1c(-c2ccc(OC)cc2)[nH]c2nccnc12 | 2 | 1 | 0.6
24 | COc1ccc(-c2[nH]c3nccnc3c2CCCCl)cc1 | 3 |  | 2.5
25 | COc1cc(OC)cc(-c2cc3[nH]ccnc-3n2)c1 | > 100 | 100 | 60

Row | Compound | IC50 [1] [µM] | IC50 [2] [µM] | IC50 [3] [µM]
26 | Clc1ccc(-c2cc3[nH]ccnc-3n2)cc1 |  | 1.8 | 
27 | COc1ccc(-c2cc3[nH]ccnc-3n2)cc1 | 4 | 2 | 1.1
28 | CCCc1c(-c2ccc(O)cc2)[nH]c2nccnc12 | 1.2 | 25 | 1.8
29 | FC(F)(F)c1ccc(-c2cc3[nH]ccnc-3n2)cc1 | > 100 | 6 | 7.2
30 | Brc1ccc(-c2cc3[nH]ccnc-3n2)cc1 | > 100 |  | 6
31 | CC(C)c1c(-c2ccc(Cl)cc2)[nH]c2nccnc12 | 13 | 0.85 | 0.75
32 | COc1ccc(-c2[nH]c3nccnc3c2C)cc1 | 0.8 | 0.3 | 0.46
33 | c1c[nH]c2cc(-c3ccc(C4OCCO4)cc3)nc-2n1 | 15 | 8 | 20
34 | c1ccc(-c2cc3[nH]ccnc-3n2)nc1 | 53 | 21 | 15
35 | CN(C)c1ccc(-c2cc3[nH]ccnc-3n2)cc1 | > 100 | 20 | 12
36 | c1ccc(Cc2c(-c3ccccc3)[nH]c3nccnc23)cc1 | > 100 | 2 | 1
37 | Cc1c(-c2ccc(OS(=O)(=O)N(C)C)cc2)[nH]c2nccnc12 | 0.9 | 0.7 | 0.5
38 | Oc1ccccc1-c1cc2[nH]ccnc-2n1 | 3 | 2.5 | 6.5
39 | COc1ccccc1-c1cc2[nH]ccnc-2n1 | 23 | 20 | 3.3
40 | Cc1c(-c2ccc(O)cc2)[nH]c2nccnc12 | 0.2 | 0.25 | 0.52
41 | N#Cc1ccc(-c2cc3[nH]ccnc-3n2)cc1 | 13 | 3 | 4.8
42 | COc1ccc(-c2[nH]c3nccnc3c2CC2CCCCC2)cc1 | > 100 | 5 | 6.8
43 | Cc1c(-c2ccc(Cl)cc2)[nH]c2nccnc12 | 5 |  | 1.7
44 | Cn1c(-c2ccccc2)cc2nccnc21 |  | 100 | > 100
45 | c1ccc2c(-c3cc4[nH]ccnc-4n3)cccc2c1 | 80 | > 100 | 27
46 | COc1ccc(-c2cc3ccc[nH]c-3n2)cc1 |  | 60 | 
47 | COc1cccc(-c2cc3[nH]ccnc-3n2)c1 | 10 | 13 | 3.2
48 | Oc1ccc(-c2cc3[nH]ccnc-3n2)cc1 | 1 | 1.2 | 1.2
49 | CCCCc1c(-c2ccc(OC)cc2)[nH]c2nccnc12 [ALOISINE] | 1.5 |  | 0.92
